Results: PubChem BioAssay AID1963431 (Molecular Pharmacology Branch, DTP, NCI, 2024)
Each block holds one molecule with its values, some of them ahead of it.

Test system: Rh18 complex spheroid viability, percent test/control
Assay: Anticancer human tumor Rh18 cell line growth inhibition [Asc];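 note: spheroids exposed to compound for 7 days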;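 for viability, T/C: 100% = DMSO vehicle control wells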
Conditions: for IC50: curve of first compound; for viability, T/C: stronger effect = lower value
In short: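 Complex spheroids combining tumor cells with HUVEC endothelial cells and human MSCs, at 37 degrees C, 5% CO2; agents tested alone or combined, half-log dilutions from at or near clinical Cmax, or 10 microM if Cmax unknown.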

- IC50 (second compound 0.1 µM): < 0.0316 µM
- IC50 (second compound 0.316 µM): < 0.0316 µM
- IC50 (second compound 1 µM): < 0.0316 µM
- IC50 (second compound 3.16 µM): < 0.0316 µM
- IC50 (second compound 10 µM): < 0.0316 µM
Structure (SMILES): C#Cc1c(F)ccc2cc(O)cc(-c3ncc4c(N5CC6CCC(C5)N6)nc(OCC56CCCN5CC(F)C6)nc4c3F)c12 (stereo not given) + Cc1c(S(C)(=O)=O)c(-c2cc(F)cc(N3CCN(c4ccc(NS(=O)(=O)c5ccc(NC(CCN6CCC(C(=O)OCCCP(=O)(O)O)CC6)CSc6ccccc6)c(S(=O)(=O)C(F)(F)F)c5)cc4)CC3)c2)c(-c2ccc(Cl)cc2)n1C(C)C
- viability, T/C (second compound 0.1 µM, first compound 0.0316 µM): 14.1%
- viability, T/C (second compound 0.1 µM, first compound 0.1 µM): 10.3%
- viability, T/C (second compound 0.1 µM, first compound 0.316 µM): 12.1%
- viability, T/C (second compound 0.1 µM, first compound 1 µM): 13%
- viability, T/C (second compound 0.1 µM, first compound 3.16 µM): 15.7%
- viability, T/C (second compound 0.1 µM, first compound 10 µM): 15.8%
- viability, T/C (second compound 0.316 µM, first compound 0.0316 µM): 11%
- viability, T/C (second compound 0.316 µM, first compound 0.1 µM): 10.6%
- viability, T/C (second compound 0.316 µM, first compound 0.316 µM): 10.8%
- viability, T/C (second compound 0.316 µM, first compound 1 µM): 8.98%
- viability, T/C (second compound 0.316 µM, first compound 3.16 µM): 10.4%
- viability, T/C (second compound 0.316 µM, first compound 10 µM): 12.9%
- viability, T/C (second compound 1 µM, first compound 0.0316 µM): 8.64%
- viability, T/C (second compound 1 µM, first compound 0.1 µM): 7.73%
- viability, T/C (second compound 1 µM, first compound 0.316 µM): 8.18%
- viability, T/C (second compound 1 µM, first compound 1 µM): 9.23%
- viability, T/C (second compound 1 µM, first compound 3.16 µM): 8.77%
- viability, T/C (second compound 1 µM, first compound 10 µM): 8.2%
- viability, T/C (second compound 3.16 µM, first compound 0.0316 µM): 6.12%
- viability, T/C (second compound 3.16 µM, first compound 0.1 µM): 6.59%
- viability, T/C (second compound 3.16 µM, first compound 0.316 µM): 5.52%
- viability, T/C (second compound 3.16 µM, first compound 1 µM): 4.57%
- viability, T/C (second compound 3.16 µM, first compound 3.16 µM): 5.64%
- viability, T/C (second compound 3.16 µM, first compound 10 µM): 6.94%
- viability, T/C (second compound 10 µM, first compound 0.0316 µM): 5.81%
- viability, T/C (second compound 10 µM, first compound 0.1 µM): 5.32%
- viability, T/C (second compound 10 µM, first compound 0.316 µM): 2.97%
- viability, T/C (second compound 10 µM, first compound 1 µM): 3.66%
- viability, T/C (second compound 10 µM, first compound 3.16 µM): 2.62%
- viability, T/C (second compound 10 µM, first compound 10 µM): 4.15%

- IC50 (second compound 0.1 µM): < 0.00949 µM
- IC50 (second compound 0.316 µM): < 0.00949 µM
- IC50 (second compound 1 µM): < 0.00949 µM
- IC50 (second compound 3.16 µM): < 0.00949 µM
- IC50 (second compound 10 µM): < 0.00949 µM
Structure (SMILES): Cc1nc(N2CCC3(CC2)COC(C)C3N)c(CO)nc1Sc1ccnc(N)c1Cl (stereo not given) + Cc1c(S(C)(=O)=O)c(-c2cc(F)cc(N3CCN(c4ccc(NS(=O)(=O)c5ccc(NC(CCN6CCC(C(=O)OCCCP(=O)(O)O)CC6)CSc6ccccc6)c(S(=O)(=O)C(F)(F)F)c5)cc4)CC3)c2)c(-c2ccc(Cl)cc2)n1C(C)C
- viability, T/C (second compound 0.1 µM, first compound 0.00949 µM): 11.9%
- viability, T/C (second compound 0.1 µM, first compound 0.03 µM): 11.6%
- viability, T/C (second compound 0.1 µM, first compound 0.0949 µM): 11.1%
- viability, T/C (second compound 0.1 µM, first compound 0.3 µM): 7.3%
- viability, T/C (second compound 0.1 µM, first compound 0.949 µM): 7.66%
- viability, T/C (second compound 0.1 µM, first compound 3 µM): 5.44%
- viability, T/C (second compound 0.316 µM, first compound 0.00949 µM): 8.93%
- viability, T/C (second compound 0.316 µM, first compound 0.03 µM): 9.76%
- viability, T/C (second compound 0.316 µM, first compound 0.0949 µM): 7.87%
- viability, T/C (second compound 0.316 µM, first compound 0.3 µM): 5.11%
- viability, T/C (second compound 0.316 µM, first compound 0.949 µM): 5.06%
- viability, T/C (second compound 0.316 µM, first compound 3 µM): 4.22%
- viability, T/C (second compound 1 µM, first compound 0.00949 µM): 7.05%
- viability, T/C (second compound 1 µM, first compound 0.03 µM): 7.01%
- viability, T/C (second compound 1 µM, first compound 0.0949 µM): 6.81%
- viability, T/C (second compound 1 µM, first compound 0.3 µM): 4.44%
- viability, T/C (second compound 1 µM, first compound 0.949 µM): 4.09%
- viability, T/C (second compound 1 µM, first compound 3 µM): 2.1%
- viability, T/C (second compound 3.16 µM, first compound 0.00949 µM): 4.29%
- viability, T/C (second compound 3.16 µM, first compound 0.03 µM): 6.13%
- viability, T/C (second compound 3.16 µM, first compound 0.0949 µM): 4.92%
- viability, T/C (second compound 3.16 µM, first compound 0.3 µM): 3.71%
- viability, T/C (second compound 3.16 µM, first compound 0.949 µM): 2.47%
- viability, T/C (second compound 3.16 µM, first compound 3 µM): 2.4%
- viability, T/C (second compound 10 µM, first compound 0.00949 µM): 4.54%
- viability, T/C (second compound 10 µM, first compound 0.03 µM): 4.83%
- viability, T/C (second compound 10 µM, first compound 0.0949 µM): 3.89%
- viability, T/C (second compound 10 µM, first compound 0.3 µM): 3.77%
- viability, T/C (second compound 10 µM, first compound 0.949 µM): 2.82%
- viability, T/C (second compound 10 µM, first compound 3 µM): 1.96%
